pIC50: −log10 of the molar value.
These molecules were tested against T1, recombinant human cGAS (aa147-522) (Homo sapiens, UniProt Q8N884) (assay: In vitro inhibition assay of cGAS activity (ATP consumption, KinaseGlo Max)). Details: Table 2, read-out: cGAS Inhibition Results IC50.
T1 construct: recombinant human cGAS (aa147-522); His6-SUMO (cleaved yes); made in house; host or cells: E. coli BL21/pLys
T1 sequence (Q8N884 147-522): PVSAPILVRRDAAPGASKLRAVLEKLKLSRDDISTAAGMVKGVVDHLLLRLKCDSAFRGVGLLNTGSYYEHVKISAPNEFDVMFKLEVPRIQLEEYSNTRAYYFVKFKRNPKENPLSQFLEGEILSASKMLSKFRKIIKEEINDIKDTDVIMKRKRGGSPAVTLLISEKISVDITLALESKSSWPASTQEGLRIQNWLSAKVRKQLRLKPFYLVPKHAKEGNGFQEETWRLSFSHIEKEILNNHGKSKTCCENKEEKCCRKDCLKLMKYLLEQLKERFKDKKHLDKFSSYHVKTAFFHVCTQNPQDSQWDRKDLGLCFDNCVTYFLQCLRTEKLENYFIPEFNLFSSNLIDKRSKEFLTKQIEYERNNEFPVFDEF
Format: biochemical
Outline: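 IC50 came from plotting % ATP consumption against log compound concentration, with leftover ATP detected by KinaseGlo Max chemiluminescence. Reactions ran 20 min at 37 °C with 1.5 μg/mL human cGAS (aa147-522), 6.6 μM ATP, 0.1 mM GTP and 0.01 mg/mL DNA at pH 7.5.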
`Cc1cc(NC2CCNC2=O)c2ccc(Cl)c(Cl)c2n1` (stereo not drawn) [I-315] was tested, and the pIC50 was under 4.52. In the case of `COC(=O)[C@@H]1C[C@H](O)CN1c1cc(-c2cn[nH]c2)c2ccc(Cl)c(Cl)c2n1` [I-432], the pIC50 was 4.52 to 5.70. In the case of `O=[PH](O)OCC1CCCN(c2cc(-c3cn[nH]c3)c3ccc(Cl)c(Cl)c3n2)C1` (stereo not drawn) [I-329], the pIC50 was over 5.70. `O=C(O)C1CN(c2cc(-n3ccnc3)c3ccc(Cl)c(Cl)c3n2)CCN1CCO` (stereo not drawn) [I-81] was tested, and the pIC50 was over 5.70. `OCCN(CCN1CCOCC1)c1cc(-c2cn[nH]c2)c2ccc(Cl)c(Cl)c2n1` [I-218] was tested, and the pIC50 was over 5.70. For `OC[C@H](Nc1cc(-n2ccnc2)c2ccc(Cl)c(Cl)c2n1)c1ccccc1` [I-247], the pIC50 was 4.52 to 5.70. `O=C1CN(c2cc(-n3ccnc3)c3ccc(Cl)cc3n2)CCN1` [I-85] gave a pIC50 of over 5.70. Work on `C[C@H](CO)N(C)c1cc(-n2ccnc2)c2ccc(Cl)c(Cl)c2n1` [I-242] yielded a pIC50 of over 5.70. Work on `CNS(=O)(=O)CCNc1cc(-n2ccnc2)c2ccc(Cl)c(Cl)c2n1` [I-201] yielded a pIC50 of over 5.70. With `Oc1cccc(-c2cc(-n3ccnc3)c3ccc(Cl)c(Cl)c3n2)c1` [I-43] the pIC50 was over 5.70. In the case of `O=C(O)[C@@H]1C[C@H](O)CN1c1cc(-c2cn[nH]c2)c2ccc(Cl)c(Cl)c2n1` [I-431], the pIC50 was over 5.70. With `CNS(=O)(=O)CCN(C)c1cc(-n2ccnc2)c2ccc(Cl)c(Cl)c2n1` [I-205] the pIC50 was over 5.70. Molecule `COc1ccc(-c2cc(-n3ccnc3)c3ccc(Cl)c(Cl)c3n2)cc1O` [I-41] has a pIC50 of over 5.70. For `O=C(C[C@@H]1CCCN1c1cc(-c2cn[nH]c2)c2ccc(Cl)c(Cl)c2n1)N1CCC[C@H]1CO` [I-454], the pIC50 was over 5.70. `O=C(O)c1cc(C(=O)O)cc(-c2cc(-n3ccnc3)c3ccc(Cl)cc3n2)c1` [I-28] gave a pIC50 of over 5.70. Molecule `CN(CCC(=O)N1CCCC(O)C1)c1cc(-c2cn[nH]c2)c2ccc(Cl)c(Cl)c2n1` (stereo not drawn) [I-198] has a pIC50 of over 5.70. With `NC(=O)Nc1cccc(-c2cc(-n3ccnc3)c3ccc(Cl)cc3n2)c1` [I-11, 1-(3-(7-chloro-4-(1H-imidazol-1-yl)quinolin-2-yl)phenyl)urea] the pIC50 was 4.52 to 5.70. `Cn1cc(-c2cc(NCC(=O)O)c3ccc(Cl)c(Cl)c3n2)cn1` [I-425] gave a pIC50 of under 4.52. In the case of `C[C@@H](Nc1cc(-c2cn[nH]c2)nc2c(Cl)c(Cl)ccc12)C(=O)O` [I-286], the pIC50 was over 5.70. `COC(=O)c1cncc(-c2cc(-n3ccnc3)c3ccc(Cl)cc3n2)c1` [I-34] was tested, and the pIC50 was under 4.52. `O=C(CO)N1CCN(c2cc(-n3ccnc3)c3ccc(Cl)cc3n2)CC1` [I-77, 1-(4-(7-chloro-4-(1H-imidazol-1-yl)quinolin-2-yl)piperazin-1-yl)-2-hydroxyethan-1-one] showed a pIC50 of under 4.52. `CC(C)[C@H](NC(=O)C[C@@H]1CCCN1c1cc(-n2ccnc2)c2ccc(Cl)c(Cl)c2n1)C(=O)O` [I-338] showed a pIC50 of over 5.70. `O=C1NCCC1Nc1cc(-n2ccnc2)c2ccc(Cl)cc2n1` (stereo not drawn) [I-367] showed a pIC50 of under 4.52. `C[C@H](CS(N)(=O)=O)Nc1cc(-n2ccnc2)c2ccc(Cl)c(Cl)c2n1` [I-207] was tested, and the pIC50 was over 5.70. `COC[C@@H]1CCCN1c1cc(-n2ccnc2)c2ccc(Cl)c(Cl)c2n1` [I-147] was tested, and the pIC50 was over 5.70. `Cc1cc(-n2ccnc2)c2ccc(Cl)c(Cl)c2n1` [I-405, 7,8-dichloro-4-(1H-imidazol-1-yl)-2-methylquinoline] gave a pIC50 of 4.52 to 5.70. `CN(CCC(=O)O)C(=O)C[C@@H]1CCCN1c1cc(-n2ccnc2)c2ccc(Cl)c(Cl)c2n1` [I-340] was tested, and the pIC50 was over 5.70. `Cc1cc(N2CCCNC(=O)C2)c2ccc(Cl)c(Cl)c2n1` [I-305] gave a pIC50 of under 4.52. With `O=C(O)[C@@H]1C[C@@H](OCc2ccccc2)CN1c1cc(-c2cn[nH]c2)c2ccc(Cl)c(Cl)c2n1` [I-438] the pIC50 was 4.52 to 5.70. `CC(=O)OCC(=O)NC1CCCN(c2cc(-n3ccnc3)c3ccc(Cl)cc3n2)C1` (stereo not drawn) [I-395, 2-((1-(7-chloro-4-(1H-imidazol-1-yl)quinolin-2-yl)piperidin-3-yl)amino)-2-oxoethyl acetate] showed a pIC50 of 4.52 to 5.70. `O=C(O)[C@@H]1CN(c2cc(-c3cn[nH]c3)c3ccc(Cl)c(Cl)c3n2)CCO1` [I-327] was tested, and the pIC50 was over 5.70. Work on `OCCNc1cc(-n2ccnc2)c2ccc(Cl)c(Cl)c2n1` [I-239] yielded a pIC50 of over 5.70. `O=C(CO)NC1CCCN(c2cc(-n3ccnc3)c3ccc(Cl)cc3n2)C1` (stereo not drawn) [I-106, N-(1-(7-chloro-4-(1H-imidazol-1-yl)quinolin-2-yl)piperidin-3-yl)-2-hydroxyacetamide] showed a pIC50 of 4.52 to 5.70. Molecule `O=C(O)c1cc(-c2cc(-n3ccnc3)c3ccc(Cl)cc3n2)ccc1OC(F)(F)F` [I-18] has a pIC50 of 4.52 to 5.70. `CN(CCNS(=O)(=O)c1ncc[nH]1)c1cc(-n2ccnc2)c2ccc(Cl)cc2n1` [I-230] showed a pIC50 of 4.52 to 5.70. `Clc1ccc2c(-c3ccn[nH]3)cc(-c3ccccc3)nc2c1` [I-68] showed a pIC50 of under 4.52. `Clc1ccc2c(-n3ccnc3)cc(-c3ccccc3)nc2c1` [I-1] showed a pIC50 of 4.52 to 5.70. Work on `NS(=O)(=O)CCNc1cc(-c2cn[nH]c2)c2ccc(Cl)c(F)c2n1` [I-262] yielded a pIC50 of over 5.70. Molecule `CS(=O)(=O)NC1CCCN(c2cc(-n3ccnc3)c3ccc(Cl)cc3n2)C1` (stereo not drawn) [I-105, N-(1-(7-chloro-4-(1H-imidazol-1-yl)quinolin-2-yl)piperidin-3-yl)methanesulfonamide] has a pIC50 of 4.52 to 5.70. For `COc1ncc(-c2cc(-n3ccnc3)c3ccc(Cl)cc3n2)cc1C(=O)O` [I-33, 5-(7-chloro-4-(1H-imidazol-1-yl)quinolin-2-yl)-2-methoxynicotinic acid], the pIC50 was 4.52 to 5.70. With `N#Cc1cn(-c2cc(-c3ccccc3)nc3cc(Cl)ccc23)cn1` [I-62] the pIC50 was under 4.52. Molecule `NC(=O)CCNc1cc(-c2cn[nH]c2)c2ccc(Cl)c(Cl)c2n1` [I-190] has a pIC50 of over 5.70. Molecule `Clc1ccc2c(-c3cccnc3)cc(-c3ccccc3)nc2c1` [I-69] has a pIC50 of under 4.52. `O=[PH](O)OCCCCNc1cc(-c2cn[nH]c2)c2ccc(Cl)c(Cl)c2n1` [I-258] gave a pIC50 of over 5.70.

Same assay, conditions: Table 3, read-out: cGAS Inhibition Results IC50
For `CC(C)(C)OC(=O)C[C@@H]1CCCN1c1cc(-n2ccnc2)c2ccc(Cl)c(Cl)c2n1` [I-573], the pIC50 was 4.52 to 5.70. For `O=C(O)c1ccc(C2CCCN2c2cc(-n3ccnc3)c3ccc(Cl)c(Cl)c3n2)s1` (stereo not drawn) [I-468], the pIC50 was 4.52 to 5.70. With `O=C(O)CCOC[C@H]1CCCCN1c1cc(-n2ccnc2)c2ccc(Cl)c(Cl)c2n1` [I-790] the pIC50 was 4.52 to 5.70. For `CN(CCS(=O)(=O)N1CCCC(C(=O)O)C1)c1cc(-n2ccnc2)c2ccc(Cl)c(Cl)c2n1` (stereo not drawn) [I-631], the pIC50 was over 5.70. Work on `O=C(O)c1ccc(OC[C@@H]2CCCN2c2cc(-n3ccnc3)c3ccc(Cl)c(Cl)c3n2)cc1` [I-737] yielded a pIC50 of over 5.70. Work on `CC(C)[C@H](NC(=O)[C@@H]1CCCN1c1cc(-n2ccnc2)c2ccc(Cl)c(Cl)c2n1)C(=O)O` [I-550] yielded a pIC50 of 4.52 to 5.70. `CC12CN(c3cc(-n4ccnc4)c4ccc(Cl)c(Cl)c4n3)C(C(=O)O)(C1)C2` [I-475] was tested, and the pIC50 was 4.52 to 5.70. Molecule `O=C(O)COC[C@H]1CCCN(c2cc(-c3cn[nH]c3)c3ccc(Cl)c(Cl)c3n2)C1` [I-746] has a pIC50 of over 5.70. Work on `C[C@]1(C(=O)O)CCCN1c1cc(-n2ccnc2)c2ccc(Cl)c(Cl)c2n1` [I-456] yielded a pIC50 of under 4.52. `O=[PH](O)OC[C@@H]1CCCN1c1cc(-n2ccnc2)c2ccc(Cl)c(Cl)c2n1` [I-658, ((5)-1-(7,8-dichloro-4-(1H-imidazol-1-yl)quinolin-2-yl)pyrrolidin-2-yl)methyl hydrogen phosphonate] showed a pIC50 of over 5.70. In the case of `CC(C)N(CCCOc1cccc(F)c1C(=O)O)c1cc(-n2ccnc2)c2ccc(Cl)c(Cl)c2n1` [I-850], the pIC50 was 4.52 to 5.70. For `O=C(C[C@@H]1CCCN1c1cc(-n2ccnc2)c2ccc(Cl)c(Cl)c2n1)N[C@@H](C(=O)O)c1ccccc1` [I-528], the pIC50 was under 4.52. In the case of `COC(=O)[C@@H]1C[C@@H](N)CN1c1cc(-n2ccnc2)c2ccc(Cl)c(Cl)c2n1` [I-589], the pIC50 was 4.52 to 5.70. Work on `COC(=O)C12CC(C)(CN1c1cc(-n3ccnc3)c3ccc(Cl)c(Cl)c3n1)C2` [I-580] yielded a pIC50 of under 4.52. Work on `CN(CCNC(=O)C1CCCC1C(=O)O)c1cc(-n2ccnc2)c2ccc(Cl)c(Cl)c2n1` (stereo not drawn) [I-622] yielded a pIC50 of over 5.70. Molecule `OC[C@@H]1CCN1c1cc(-n2ccnc2)c2ccc(Cl)c(Cl)c2n1` [I-659] has a pIC50 of over 5.70. Work on `O=C(O)CNC(=O)O[C@H]1C[C@@H](C(=O)O)N(c2cc(-n3ccnc3)c3ccc(Cl)c(Cl)c3c2)C1` [I-570, (2S,4S)-4-(((carboxymethyl)carbamoyl)oxy)-1-(7,8-dichloro-4-(1H-imidazol-1-yl)naphthalen-2-yl)pyrrolidine-2-carboxylic acid] yielded a pIC50 of 4.52 to 5.70. `Nc1ccc(-c2cc(N3CCC[C@H]3COCCC(=O)O)nc3c(Cl)c(Cl)ccc23)cn1` [I-822, (S)-3-((1-(4-(6-aminopyridin-3-yl)-7,8-dichloroquinolin-2-yl)pyrrolidin-2-yl)methoxy)propanoic acid] gave a pIC50 of under 4.52. Work on `COC(=O)[C@@H]1C[C@H](O)CN1c1cc(-n2ccnc2)c2ccc(Cl)c(Cl)c2n1` [I-459] yielded a pIC50 of 4.52 to 5.70. `O=C(O)[C@@H]1CC(F)(F)CN1c1cc(-n2ccnc2)c2ccc(Cl)c(Cl)c2n1` [I-520] was tested, and the pIC50 was over 5.70. Work on `O=C(NO)[C@@H]1[C@@H](O)CCN1c1cc(-n2ccnc2)c2ccc(Cl)c(Cl)c2n1` [I-558] yielded a pIC50 of over 5.70. `O=C(O)[C@@H]1C[C@@H](N2CCOCC2)CN1c1cc(-n2ccnc2)c2ccc(Cl)c(Cl)c2n1` [I-518] was tested, and the pIC50 was over 5.70. Work on `CN(CCN(CC(=O)O)S(C)(=O)=O)c1cc(-n2ccnc2)c2ccc(Cl)c(Cl)c2n1` [I-635, N-(2-((7,8-dichloro-4-(1H-imidazol-1-yl)quinolin-2-yl)(methyl)amino)ethyl)-N-(methylsulfonyl)glycine] yielded a pIC50 of over 5.70. For `COC(=O)[C@@H]1c2ccccc2CN1c1cc(-n2ccnc2)c2ccc(Cl)c(Cl)c2n1` [I-660], the pIC50 was 4.52 to 5.70. Molecule `OC1CC2CCC(C1)N2c1cc(-n2ccnc2)c2ccc(Cl)c(Cl)c2n1` (stereo not drawn) [I-490] has a pIC50 of over 5.70. Molecule `O=C(O)[C@@H]1C[C@@H](O)CN1c1cc(-n2ccnc2)c2ccc(Cl)c(Cl)c2n1` [I-514] has a pIC50 of over 5.70. Molecule `CO[C@@H]1CCN(c2cc(-n3ccnc3)c3ccc(Cl)c(Cl)c3n2)[C@@H]1C(=O)O` [I-559] has a pIC50 of over 5.70. In the case of `CN(CCNC(=O)C1CCC(C(=O)O)C1)c1cc(-n2ccnc2)c2ccc(Cl)c(Cl)c2n1` (stereo not drawn) [I-615], the pIC50 was 4.52 to 5.70.
